Reference: publication PMC5218480 (PLoS ONE, 2017)

Tested on: MV-4-11 cells
Test: Gene expression microarray analysis (Affymetrix PrimeView) and GSEA
Format: cell-based, human
Design: RFU PODN (11730768_x_at) / Fold change /veh PODN (11730768_x_at) / RFU LINC00158 (11744669_a_at) / Fold change /veh LINC00158 (11744669_a_at) / RFU DUSP10 (11751237_a_at) / Fold change /veh DUSP10 (11751237_a_at) / RFU ID3 (11757404_x_at) / Fold change /veh ID3 (11757404_x_at) / RFU PLEKHG5 (11737974_s_at) / Fold change /veh PLEKHG5 (11737974_s_at) / RFU LRRC4B (11730491_at) / Fold change /veh LRRC4B (11730491_at) / RFU GIMAP4 (11747438_a_at) / Fold change /veh GIMAP4 (11747438_a_at) / RFU KRT8 (11758183_x_at) / Fold change /veh KRT8 (11758183_x_at) / RFU CNN1 (11734310_a_at) / Fold change /veh CNN1 (11734310_a_at) / RFU VPS37D (11726825_at) / Fold change /veh VPS37D (11726825_at) / RFU C10orf10 (11716522_x_at) / Fold change /veh C10orf10 (11716522_x_at) / RFU KIR2DL2 /// KIR2DL4 /// KIR2DL5A /// KIR2DL5B /// KIR2DS1 /// KIR2DS2 /// KIR2DS3 /// KIR2DS4 /// KIR3DL3 /// KIR3DL3 /// KIR3DS1 (11738374_at) / Fold change /veh KIR2DL2 /// KIR2DL4 /// KIR2DL5A /// KIR2DL5B /// KIR2DS1 /// KIR2DS2 /// KIR2DS3 /// KIR2DS4 /// KIR3DL3 /// KIR3DL3 /// KIR3DS1 (11738374_at) / RFU C1QL1 (11718748_at) / Fold change /veh C1QL1 (11718748_at) / RFU TMPRSS4 (11747572_a_at) / Fold change /veh TMPRSS4 (11747572_a_at) / RFU HAMP (11756126_x_at) / Fold change /veh HAMP (11756126_x_at) / RFU RNFT2 (11725882_a_at) / Fold change /veh RNFT2 (11725882_a_at) / RFU NR4A2 (11747474_a_at) / Fold change /veh NR4A2 (11747474_a_at) / RFU ABCC12 (11746883_a_at) / Fold change /veh ABCC12 (11746883_a_at) / RFU TMEM136 (11760407_x_at) / Fold change /veh TMEM136 (11760407_x_at) / RFU CLDN22 /// WWC2 (11732394_at) / Fold change /veh CLDN22 /// WWC2 (11732394_at) / RFU HLA-DPB1 (11760878_x_at) / Fold change /veh HLA-DPB1 (11760878_x_at) / RFU SPINT1 (11716480_a_at) / Fold change /veh SPINT1 (11716480_a_at) / RFU GAP43 (11754022_s_at) / Fold change /veh GAP43 (11754022_s_at) / RFU A4GNT (11735810_at) / Fold change /veh A4GNT (11735810_at) / RFU PRB3 (11715151_x_at) / Fold change /veh PRB3 (11715151_x_at) / RFU TUBB4B (11761932_at) / Fold change /veh TUBB4B (11761932_at) / RFU CAPN14 (11732068_a_at) / Fold change /veh CAPN14 (11732068_a_at) / RFU TMCC2 (11721928_a_at) / Fold change /veh TMCC2 (11721928_a_at) / RFU IRGQ (11745062_a_at) / Fold change /veh IRGQ (11745062_a_at) / RFU FAM174B (11720279_a_at) / Fold change /veh FAM174B (11720279_a_at) / RFU TMPRSS4 (11748680_a_at) / Fold change /veh TMPRSS4 (11748680_a_at) / RFU FAM212B (11763350_a_at) / Fold change /veh FAM212B (11763350_a_at) / RFU PLEKHG5 (11743358_a_at) / Fold change /veh PLEKHG5 (11743358_a_at) / RFU ZSCAN30 (11745921_a_at) / Fold change /veh ZSCAN30 (11745921_a_at) / RFU CMKLR1 (11741424_a_at) / Fold change /veh CMKLR1 (11741424_a_at) / RFU LOC101060620 /// MAPK8IP1 (11723275_at) / Fold change /veh LOC101060620 /// MAPK8IP1 (11723275_at) / RFU SPTSSB (11747773_x_at) / Fold change /veh SPTSSB (11747773_x_at) / RFU PRSS12 (11739890_at) / Fold change /veh PRSS12 (11739890_at) / RFU BIN1 (11741810_x_at) / Fold change /veh BIN1 (11741810_x_at) / RFU WNT11 (11732464_a_at) / Fold change /veh WNT11 (11732464_a_at) / RFU C10orf10 (11716521_a_at) / Fold change /veh C10orf10 (11716521_a_at) / RFU C5orf56 (11738089_at) / Fold change /veh C5orf56 (11738089_at) / RFU CYB561 (11721691_x_at) / Fold change /veh CYB561 (11721691_x_at) / RFU ANKRD19P (11752326_a_at) / Fold change /veh ANKRD19P (11752326_a_at) / RFU OR2T12 /// OR2T33 /// OR2T8 (11738714_s_at) / Fold change /veh OR2T12 /// OR2T33 /// OR2T8 (11738714_s_at) / RFU VCAN (11748164_a_at) / Fold change /veh VCAN (11748164_a_at) / RFU JSRP1 (11732532_at) / Fold change /veh JSRP1 (11732532_at) / RFU KRTAP10-11 (11738290_x_at) / Fold change /veh KRTAP10-11 (11738290_x_at) / RFU MYO3A (11730013_a_at) / Fold change /veh MYO3A (11730013_a_at) / RFU EBF3 (11725865_a_at) / Fold change /veh EBF3 (11725865_a_at) / RFU CAMK2N1 (11719241_x_at) / Fold change /veh CAMK2N1 (11719241_x_at) / RFU C5orf56 (11738088_a_at) / Fold change /veh C5orf56 (11738088_a_at) / RFU OLFML3 (11715873_a_at) / Fold change /veh OLFML3 (11715873_a_at) / RFU LOC100653217 /// NTM (11731650_a_at) / Fold change /veh LOC100653217 /// NTM (11731650_a_at) / RFU MAPK11 (11762145_a_at) / Fold change /veh MAPK11 (11762145_a_at) / RFU FIZ1 (11724087_x_at) / Fold change /veh FIZ1 (11724087_x_at) / RFU OASL (11726364_x_at) / Fold change /veh OASL (11726364_x_at) / RFU SOX15 (11748057_x_at) / Fold change /veh SOX15 (11748057_x_at) / RFU CD79A (11719716_a_at) / Fold change /veh CD79A (11719716_a_at) / RFU HIST1H1D (11736915_at) / Fold change /veh HIST1H1D (11736915_at) / RFU CASKIN2 (11723855_a_at) / Fold change /veh CASKIN2 (11723855_a_at) / RFU LOC730098 (11760151_x_at) / Fold change /veh LOC730098 (11760151_x_at) / RFU OR4N2 (11742367_at) / Fold change /veh OR4N2 (11742367_at) / RFU PRRT2 (11749266_a_at) / Fold change /veh PRRT2 (11749266_a_at) / RFU SNX32 (11753110_a_at) / Fold change /veh SNX32 (11753110_a_at) / RFU CDHR5 (11726645_a_at) / Fold change /veh CDHR5 (11726645_a_at) / RFU RCAN1 (11760418_a_at) / Fold change /veh RCAN1 (11760418_a_at) / RFU FAM167A (11723789_a_at) / Fold change /veh FAM167A (11723789_a_at) / RFU FAM26E (11764081_at) / Fold change /veh FAM26E (11764081_at) / RFU ISYNA1 (11749810_s_at) / Fold change /veh ISYNA1 (11749810_s_at) / RFU ACY1 (11761880_at) / Fold change /veh ACY1 (11761880_at) / RFU 11764098_at / Fold change /veh 11764098_at / RFU SAMD14 (11745864_x_at) / Fold change /veh SAMD14 (11745864_x_at) / RFU NPB (11741838_a_at) / Fold change /veh NPB (11741838_a_at) / RFU TMPRSS6 (11731388_a_at) / Fold change /veh TMPRSS6 (11731388_a_at) / RFU KRTAP10-2 (11738614_at) / Fold change /veh KRTAP10-2 (11738614_at) / RFU ARHGAP8 /// PRR5-ARHGAP8 (11727945_x_at) / Fold change /veh ARHGAP8 /// PRR5-ARHGAP8 (11727945_x_at) / RFU KRTAP5-7 /// NADSYN1 (11734609_at) / Fold change /veh KRTAP5-7 /// NADSYN1 (11734609_at) / RFU RASL12 (11751679_a_at) / Fold change /veh RASL12 (11751679_a_at) / RFU CDKN2B (11736163_a_at) / Fold change /veh CDKN2B (11736163_a_at) / RFU PRF1 (11729649_at) / Fold change /veh PRF1 (11729649_at) / RFU, ZNF638 /// ZNF638-IT1 / Fold change vs veh, ZNF638 /// ZNF638-IT1 / RFU, PANK3 / Fold change vs veh, PANK3 / RFU, SH3YL1 / Fold change vs veh, SH3YL1 / RFU, ZEB2 / Fold change vs veh, ZEB2 / RFU, NRIP1 / Fold change vs veh, NRIP1 / RFU, PTTG1IP / Fold change vs veh, PTTG1IP / RFU, CAPN2 / Fold change vs veh, CAPN2 / RFU, MED14 / Fold change vs veh, MED14 / RFU, SNORA58 / Fold change vs veh, SNORA58 / RFU, C1orf63 / Fold change vs veh, C1orf63 / RFU, LRRFIP1 / Fold change vs veh, LRRFIP1 / RFU, NDUFAF7 / Fold change vs veh, NDUFAF7 / RFU, SLC12A2 / Fold change vs veh, SLC12A2 / RFU, IBTK / Fold change vs veh, IBTK / RFU, ESF1 / Fold change vs veh, ESF1 / Fold change vs veh, TMEM50B / RFU, TAOK1 / Fold change vs veh, TAOK1 / RFU, ACBD3 / Fold change vs veh, ACBD3 / RFU, TMA16 / Fold change vs veh, TMA16 / RFU, RWDD3 / Fold change vs veh, RWDD3 / RFU, BCAT1 / Fold change vs veh, BCAT1 / RFU, EDEM3 / Fold change vs veh, EDEM3 / RFU, TMEM33 / Fold change vs veh, TMEM33 / RFU, WDR75 / Fold change vs veh, WDR75 / RFU, AHCTF1 / Fold change vs veh, AHCTF1 / RFU, TFRC / Fold change vs veh, TFRC / RFU, ZDHHC17 / Fold change vs veh, ZDHHC17 / RFU, NOM1 / Fold change vs veh, NOM1 / RFU, ARL8B / Fold change vs veh, ARL8B / RFU, ZBTB11 / Fold change vs veh, ZBTB11 / RFU, TAMM41 / Fold change vs veh, TAMM41 / RFU, KIAA1704 /// LOC100996395 / Fold change vs veh, KIAA1704 /// LOC100996395 / RFU, ING1 / Fold change vs veh, ING1 / RFU, TRMT61B / Fold change vs veh, TRMT61B / RFU, FUBP3 / Fold change vs veh, FUBP3 / RFU, TP53 / Fold change vs veh, TP53 / RFU, TNKS2 / Fold change vs veh, TNKS2 / RFU, ZFP14 / Fold change vs veh, ZFP14 / RFU, ACTR2 / Fold change vs veh, ACTR2 / RFU, PPP3R1 / Fold change vs veh, PPP3R1 / RFU, PIK3R1 / Fold change vs veh, PIK3R1 / RFU, HNRNPA1 / Fold change vs veh, HNRNPA1 / RFU, RNF170 / Fold change vs veh, RNF170 / RFU, ZNF28 / Fold change vs veh, ZNF28 / RFU, RNGTT / Fold change vs veh, RNGTT / RFU, OGT / Fold change vs veh, OGT / RFU, BRD1 / Fold change vs veh, BRD1 / RFU, MARS / Fold change vs veh, MARS / RFU, ZNF655 / Fold change vs veh, ZNF655 / RFU, FAHD1 / Fold change vs veh, FAHD1 / RFU, BDP1 / Fold change vs veh, BDP1 / RFU, LRRCC1 / Fold change vs veh, LRRCC1 / RFU, ARID1A / Fold change vs veh, ARID1A / RFU, ZNF146 / Fold change vs veh, ZNF146 / RFU, ZNF330 / Fold change vs veh, ZNF330 / RFU, GPN3 / Fold change vs veh, GPN3 / RFU, C9orf123 / Fold change vs veh, C9orf123 / RFU, N4BP2L2 / Fold change vs veh, N4BP2L2 / RFU, ARFIP1 / Fold change vs veh, ARFIP1 / RFU, FAM179B / Fold change vs veh, FAM179B / RFU, BCL10 / Fold change vs veh, BCL10 / RFU, UHRF1BP1L / Fold change vs veh, UHRF1BP1L / RFU, BET1 / Fold change vs veh, BET1 / RFU, CNOT2 / Fold change vs veh, CNOT2 / RFU, ZNF268 / Fold change vs veh, ZNF268 / Fold change vs veh, ZNF507 / RFU, DGCR2 / Fold change vs veh, DGCR2 / RFU, WDSUB1 / Fold change vs veh, WDSUB1 / Fold change vs veh, HSP90B1 /// MIR3652 / RFU, ADSS / Fold change vs veh, ADSS / RFU, GK / Fold change vs veh, GK / RFU, ZNF148 / Fold change vs veh, ZNF148 / RFU, TAF9 / Fold change vs veh, TAF9 / RFU, SLC1A5 / Fold change vs veh, SLC1A5 / RFU, SLMO2 / Fold change vs veh, SLMO2 / RFU, ABCC4 / Fold change vs veh, ABCC4 / RFU, LOC101060439 /// RAP1B / Fold change vs veh, LOC101060439 /// RAP1B / RFU, RFX7 / Fold change vs veh, RFX7 / RFU, GTPBP10 / Fold change vs veh, GTPBP10 / RFU, CNEP1R1 / Fold change vs veh, CNEP1R1 / RFU, BIVM-ERCC5 /// ERCC5 / Fold change vs veh, BIVM-ERCC5 /// ERCC5 / RFU, ILF3 / Fold change vs veh, ILF3 / RFU 11762660_at / Fold change /veh 11762660_at / RFU VCAN (11757783_s_at) / Fold change /veh VCAN (11757783_s_at) / RFU DDX43 (11728927_at) / Fold change /veh DDX43 (11728927_at) / RFU KRT8 (11758188_x_at) / Fold change /veh KRT8 (11758188_x_at) / RFU NKD1 (11759106_at) / Fold change /veh NKD1 (11759106_at) / RFU SRD5A1 (11742802_a_at) / Fold change /veh SRD5A1 (11742802_a_at) / RFU TPSAB1 /// TPSB2 (11721975_s_at) / Fold change /veh TPSAB1 /// TPSB2 (11721975_s_at) / RFU GSTM3 (11746129_a_at) / Fold change /veh GSTM3 (11746129_a_at) / RFU IL23R (11737362_x_at) / Fold change /veh IL23R (11737362_x_at) / RFU TMEM51 (11727254_a_at) / Fold change /veh TMEM51 (11727254_a_at) / RFU PIWIL2 (11732686_x_at) / Fold change /veh PIWIL2 (11732686_x_at) / RFU ORM1 (11744905_x_at) / Fold change /veh ORM1 (11744905_x_at) / RFU CCDC152 (11743942_at) / Fold change /veh CCDC152 (11743942_at) / RFU ECM1 (11717891_a_at) / Fold change /veh ECM1 (11717891_a_at) / RFU IL23R (11748794_a_at) / Fold change /veh IL23R (11748794_a_at) / RFU TNFAIP8L3 (11732012_x_at) / Fold change /veh TNFAIP8L3 (11732012_x_at) / RFU MBOAT4 (11741988_at) / Fold change /veh MBOAT4 (11741988_at) / RFU 11764193_at / Fold change /veh 11764193_at / RFU TMEM53 (11763286_at) / Fold change /veh TMEM53 (11763286_at) / RFU MAGEB2 (11727129_at) / Fold change /veh MAGEB2 (11727129_at) / RFU TMEM200A (11744735_a_at) / Fold change /veh TMEM200A (11744735_a_at) / RFU CCDC152 (11751479_a_at) / Fold change /veh CCDC152 (11751479_a_at) / RFU FAM211A (11726209_a_at) / Fold change /veh FAM211A (11726209_a_at) / RFU RGS16 (11746705_a_at) / Fold change /veh RGS16 (11746705_a_at) / RFU VCAN (11755009_s_at) / Fold change /veh VCAN (11755009_s_at) / RFU RHOB (11743442_s_at) / Fold change /veh RHOB (11743442_s_at) / RFU RGS16 (11720943_a_at) / Fold change /veh RGS16 (11720943_a_at) / RFU RGS16 (11720944_at) / Fold change /veh RGS16 (11720944_at) / RFU, VPS4B / Fold change vs veh, VPS4B / RFU, CREB1 / Fold change vs veh, CREB1 / RFU, DNAJC13 / Fold change vs veh, DNAJC13 / RFU, GNAQ / Fold change vs veh, GNAQ / RFU, CDK5R1 / Fold change vs veh, CDK5R1 / RFU, ZRANB3 / Fold change vs veh, ZRANB3 / RFU, CUL4A / Fold change vs veh, CUL4A / RFU, CCNY / Fold change vs veh, CCNY / RFU, UFL1 / Fold change vs veh, UFL1 / RFU, COG3 / Fold change vs veh, COG3 / RFU, DIAPH2 / Fold change vs veh, DIAPH2 / RFU, SKA2 / Fold change vs veh, SKA2 / RFU, AFF3 / Fold change vs veh, AFF3 / RFU, LMF1 / Fold change vs veh, LMF1 / RFU, IPO11 / Fold change vs veh, IPO11 / RFU, DFFB / Fold change vs veh, DFFB / RFU, FOXP1 / Fold change vs veh, FOXP1 / RFU, CARD8 / Fold change vs veh, CARD8 / RFU, STRN3 / Fold change vs veh, STRN3 / RFU, ADK / Fold change vs veh, ADK / RFU, RASSF2 / Fold change vs veh, RASSF2 / RFU, WIPF1 / Fold change vs veh, WIPF1 / RFU, LARP1B / Fold change vs veh, LARP1B / RFU, RASA1 / Fold change vs veh, RASA1 / RFU, RB1 / Fold change vs veh, RB1 / RFU, PPFIA1 / Fold change vs veh, PPFIA1 / RFU, MAT2A / Fold change vs veh, MAT2A / RFU, CCT5 / Fold change vs veh, CCT5 / RFU, WDR92 / Fold change vs veh, WDR92 / RFU, CUX1 / Fold change vs veh, CUX1 / RFU, TTC7A / Fold change vs veh, TTC7A / RFU, TMEM135 / Fold change vs veh, TMEM135 / RFU, DEPTOR / Fold change vs veh, DEPTOR / RFU, CPM / Fold change vs veh, CPM / RFU, DNAJB6 / Fold change vs veh, DNAJB6 / RFU, CACNA2D3 / Fold change vs veh, CACNA2D3 / RFU, DTX4 / Fold change vs veh, DTX4 / RFU, TFCP2 / Fold change vs veh, TFCP2 / RFU, GMCL1 /// GMCL1P1 / Fold change vs veh, GMCL1 /// GMCL1P1 / RFU, AEBP2 / Fold change vs veh, AEBP2 / RFU, SNHG1 /// SNORD22 /// SNORD25 /// SNORD26 /// SNORD27 /// SNORD28 /// SNORD29 /// SNORD31 / Fold change vs veh, SNHG1 /// SNORD22 /// SNORD25 /// SNORD26 /// SNORD27 /// SNORD28 /// SNORD29 /// SNORD31 / Fold change (Aza/veh), C12orf56 (ProbeSet 11735607_a_at) / Fold change (ACY-1035/veh), C12orf56 (ProbeSet 11735607_a_at) / Fold change (Aza/veh), FGFR1OP (ProbeSet 11751329_s_at) / Fold change (ACY-1035/veh), FGFR1OP (ProbeSet 11751329_s_at) / Fold change (Aza/veh), VPS36 (ProbeSet 11739960_a_at) / Fold change (ACY-1035/veh), VPS36 (ProbeSet 11739960_a_at) / RFU SYPL1 (11715823_x_at) / Fold change /veh SYPL1 (11715823_x_at) / RFU IGFBP7 (11715501_s_at) / Fold change /veh IGFBP7 (11715501_s_at) / RFU REEP3 (11722064_at) / Fold change /veh REEP3 (11722064_at) / RFU IGLL1 (11728026_x_at) / Fold change /veh IGLL1 (11728026_x_at): dose or concentration left out as unconfirmed
Settings: ProbeSet 11720154_at; LIST B

Nc1ccc(-c2cccs2)cc1NC(=O)c1ccc2c(c1)cc(C1CC1)n2CCN1CCOCC1 [ACY-1035]
Fold change vs veh, NRIP1: 0.88
